Columns and labels:
Staphylococcus aureus = experiment: Antibacterial activity against Staphylococcus aureus ATCC 25923 assessed as reduction in microbial growth after 24 hrs by spectrophotometric method; assay type: functional, organism-based; conditions: ATCC 25923, 24 h
Escherichia coli = experiment: Antibacterial activity against Escherichia coli ATCC 11775 assessed as reduction in microbial growth after 24 hrs by spectrophotometric method; assay type: functional, organism-based; conditions: ATCC 11775, 24 h
Candida albicans = experiment: Antifungal activity against Candida albicans ATCC 10231 assessed as reduction in microbial growth after 48 hrs by spectrophotometric method; assay type: functional, organism-based; conditions: ATCC 10231, 48 h
SW-620 = experiment: Antiproliferative activity against human SW620 cells assessed as reduction in cell viability after 48 hrs by MTT assay; assay type: functional, cell-based; conditions: SW-620, 48 h
SW620/AD300 = experiment: Antiproliferative activity against human SW620/AD300 cells assessed as reduction in cell viability after 48 hrs by MTT assay; assay type: functional, cell-based; conditions: SW620/AD300, 48 h

| Structure (SMILES) | IC50 (Staphylococcus aureus) | IC50 (Escherichia coli) | IC50 (Candida albicans) | IC50 (SW-620) | IC50 (SW620/AD300) |
| --- | --- | --- | --- | --- | --- |
| COc1c2c(cc3c1[C@H](c1ccccc1)[C@H]1C(=O)N4C[C@H](Cc5ccccc5)N(C(C)=O)C[C@@H]4[C@@H]31)OCO2 | > 30 µM | > 30 µM | > 30 µM | > 30 µM | – |
| COc1cc(C[C@H]2CN3C(=O)/C(=C/c4ccccc4)[C@H](c4cc(OC)c5c(c4)OCO5)[C@H]3CN2C(C)=O)cc2c1OCO2 | > 30 µM | > 30 µM | > 30 µM | > 30 µM | – |
| COc1cc([C@H]2/C(=C\c3ccccc3)C(=O)N3C[C@H](Cc4ccccc4)N(C(C)=O)C[C@H]23)cc2c1OCO2 | > 30 µM | > 30 µM | > 30 µM | > 30 µM | – |
| COc1cc(C[C@H]2CN3C[C@@H]4[C@@H](c5ccccc5)c5c(cc6c(c5OC)OCO6)[C@@H]4[C@H]3CN2C(C)=O)cc2c1OCO2 | > 30 µM | > 30 µM | > 30 µM | > 30 µM | – |
| COc1cc([C@@H]2[C@H]3CN(C(C)=O)[C@@H](Cc4ccccc4)CN3C(=O)[C@@]23O[C@H]3c2ccccc2)cc2c1OCO2 | > 30 µM | > 30 µM | > 30 µM | > 30 µM | – |
| COc1c2c(cc3c1[C@H](c1ccccc1)[C@@]1(O)C(=O)N4C[C@H](Cc5ccccc5)N(C(C)=O)C[C@@H]4[C@@H]31)OCO2 | > 30 µM | > 30 µM | > 30 µM | > 30 µM | – |
| COc1cc(C[C@H]2CN3C(=O)[C@@]4(O[C@H]4c4ccccc4)[C@H](c4cc(OC)c5c(c4)OCO5)[C@H]3CN2C(C)=O)cc2c1OCO2 | > 30 µM | > 30 µM | > 30 µM | > 30 µM | – |
| COc1cc(C[C@H]2CN3C[C@]4(O)[C@@H](c5ccccc5)c5c(cc6c(c5OC)OCO6)[C@@H]4[C@H]3CN2C(C)=O)cc2c1OCO2 | > 30 µM | > 30 µM | > 30 µM | > 30 µM | – |
| COc1ccc(CCN(C)CCCC(C#N)(c2ccc(OC)c(OC)c2)C(C)C)cc1OC (stereo not given) | – | – | – | – | > 30 µM |
| COc1cccc2c1C(=O)c1c(O)c3c(c(O)c1C2=O)C[C@@](O)(C(=O)CO)C[C@@H]3O[C@H]1C[C@H](N)[C@H](O)[C@H](C)O1 [DOXORUBICIN] | – | – | – | 0.11 µM | 4.9 µM |
